Measured values published in US6677315B2, “Nucleosides for imaging and treatment applications” (The United States of America as represented by the …, priority 1997, dated 2004).

What was measured:
[1] = target: T1, thymidylate synthase in MOLT-4 cells (Homo sapiens, UniProt P04818); assay: Dehalogenation of IdUrd as probe for thymidylate synthase activity in situ; assay type: cell-based; details: MOLT-4, 3 μM [3H]-IdUrd for 24 hours, fraction in DNA
T1 construct: endogenous in cells; host or cells: MOLT-4 cells
T1 sequence (P04818 whole entry): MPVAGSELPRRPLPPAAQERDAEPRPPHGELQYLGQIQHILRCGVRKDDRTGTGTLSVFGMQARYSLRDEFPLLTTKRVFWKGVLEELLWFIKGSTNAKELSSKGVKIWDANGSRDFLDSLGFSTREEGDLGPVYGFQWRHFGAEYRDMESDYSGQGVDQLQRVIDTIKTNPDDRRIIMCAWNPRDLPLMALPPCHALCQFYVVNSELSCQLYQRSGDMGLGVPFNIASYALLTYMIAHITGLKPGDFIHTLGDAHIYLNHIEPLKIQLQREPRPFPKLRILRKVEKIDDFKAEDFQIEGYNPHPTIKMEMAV
Protocol: (§1) The relative activity of thymidylate synthase was determined after incubation of cells with 3 μM [3H]-IdUrd for 24 hours. DNA was harvested, digested, and chromatographed as described above. Some IdUrd was incorporated into DNA with the iodine remaining intact on the pyrimidine ring. After conversion to IdUMP, part of the IdUrd was dehalogenated by TS to dUMP, which then was converted by TS into dTMP and subsequently incorporated into DNA, and recovered in the DNA digest as [^3H-dThd]. Relative TS activity in situ was defined as the fraction of IdUrd-derived material in DNA which was dehalogenated, i.e., ([^3H]-dThd)/([^3H]-dThd+[^3H]-IdUrd). These methods could also be used with non-radioactive IdUrd, if a stable isotopic label is used, e.g., ^13C, ^15N or ^2H. A mass spectrometric detector would be substituted for the radioactivity detector in the HPLC analysis. Unlabeled IdUrd can't be used since its dehalogenation produced unlabeled dThd, which would be indistinguishable from the endogenous pool of dThd in DNA.

[2] = target: T2, thymidylate synthase in CEM cells (Homo sapiens, UniProt P04818); assay: as above; assay type: cell-based; details: 3 μM [3H]-IdUrd for 24 hours, fraction in DNA
T2 construct: endogenous in cells; host or cells: CEM cells
T2 sequence (P04818 whole entry): as above
Protocol: as §1

[3] = target: T3, thymidylate synthase in U-937 cells (Homo sapiens, UniProt P04818); assay: as above; assay type: cell-based; details: U-937, 3 μM [3H]-IdUrd for 24 hours, fraction in DNA
T3 construct: endogenous in cells; host or cells: U-937 cells
T3 sequence (P04818 whole entry): as above
Protocol: as §1

[4] = target: T4, thymidylate synthase in RAJI cells (Homo sapiens, UniProt P04818); assay: as above; assay type: cell-based; details: 3 μM [3H]-IdUrd for 24 hours, fraction in DNA
T4 construct: endogenous in cells; host or cells: RAJI cells
T4 sequence (P04818 whole entry): as above
Protocol: as §1

[5] = target: T5, thymidylate synthase in L1210 cells (Mus musculus, UniProt P07607); assay: as above; assay type: cell-based, murine; details: L1210, 3 μM [3H]-IdUrd for 24 hours, fraction in DNA
T5 construct: endogenous in cells; host or cells: L1210 cells
T5 sequence (P07607 whole entry): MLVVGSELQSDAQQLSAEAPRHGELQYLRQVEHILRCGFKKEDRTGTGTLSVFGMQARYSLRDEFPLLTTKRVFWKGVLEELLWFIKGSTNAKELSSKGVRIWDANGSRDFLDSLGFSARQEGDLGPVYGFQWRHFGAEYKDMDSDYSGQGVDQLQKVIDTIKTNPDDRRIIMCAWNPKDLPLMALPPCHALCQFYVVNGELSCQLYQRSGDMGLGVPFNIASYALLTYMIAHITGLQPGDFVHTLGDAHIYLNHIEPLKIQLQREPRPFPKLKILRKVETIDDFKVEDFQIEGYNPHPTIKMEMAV
Protocol: as §1

L1210 cells = assay: Growth inhibition, 72-hr continuous exposure; assay type: cell-based, murine; details: Mus musculus; L1210, 100 μM, 72 hours continuous incubation
Protocol: (§2) The human-derived cell lines CEM, MOLT-4, RAJI, U-937, K-562 and the murine-derived L1210 were purchased from the American Type Culture Collection, Rockville, Md. Cells were grown and maintained as a suspension culture in RPMI 1640 medium containing L-glutamine and 10%(v/v) heat-inactivated fetal calf serum (BRL-GIBCO, Rockville, Md.). Penicillin-streptomycin solution (Sigma Chemical Co., St. Louis, Mo.) was added to achieve a final concentration of 100 units/mL. and 100 μg/mL respectively.
(§3) All cell lines, except for L1210, were suspended in fresh media at 30,000 cells/mL. L1210 cells were suspended at 10,000 cells/mL. Cells, 2 mL, were added to each of the wells of 24-well plates and incubated with either 0 to 1000 μM of FAU or 0 to 300 μM of FMAU. Incubation was conducted at 37° C. in a humidified 5% CO2 atmosphere for 72 hours. Inhibition of cellular growth was assessed by cell counting (Elzone 180, Particle Data, Inc., Elmhurst, IL). Under these conditions, the control doubling times for CEM, MOLT-4, RAJI, U-937, and K-562 cells were 21-22 hours, while the doubling times for L1210 was 8-10 hours.

MOLT-4 cells = assay: Growth inhibition, 72-hr continuous exposure; assay type: cell-based, human; details: Homo sapiens; MOLT-4, 100 μM, 72 hours continuous incubation
Protocol: as §2, §3

CEM cells = assay: Growth inhibition, 72-hr continuous exposure; assay type: cell-based, human
Protocol: as §2, §3

RAJI cells = assay: Growth inhibition, 72-hr continuous exposure; assay type: cell-based, human; details: Homo sapiens, 72 hours continuous incubation
Protocol: as §2, §3

U-937 cells = assay: Growth inhibition, 72-hr continuous exposure; assay type: cell-based, human; details: Homo sapiens; U-937, 100 μM, 72 hours continuous incubation
Protocol: as §2, §3

K-562 cells = assay: Growth inhibition, 72-hr continuous exposure; assay type: cell-based, human
Protocol: as §2, §3

| relative dehalogenation of IdUrd [1] [%] | relative dehalogenation of IdUrd [2] [%] | relative dehalogenation of IdUrd [3] [%] | relative dehalogenation of IdUrd [4] [%] | relative dehalogenation of IdUrd [5] [%] | Compound | inhibition at 100 µM (L1210 cells) [%] | inhibition at 100 µM (MOLT-4 cells) [%] | effect on cell growth (CEM cells; 0.3 μM (lowest concentration used), 72 hours) | inhibition at 100 µM (CEM cells; Homo sapiens, CCRF-CEM, 100 μM, 72 hours continuous incubation) [%] | inhibition at 100 µM (RAJI cells) [%] | inhibition at 100 µM (U-937 cells) [%] | inhibition at 100 µM (K-562 cells; Homo sapiens, K562, K-562, 100 μM, 72 hours continuous incubation) [%] | effect on cell growth (K-562 cells; K-562, 0.3 μM (lowest concentration used), 72 hours) |
| --- | --- | --- | --- | --- | --- | --- | --- | --- | --- | --- | --- | --- | --- |
| ≥ 50 | ≥ 50 | ≥ 50 | ≤ 15 | ≤ 15 | O=c1[nH]c(=O)n([C@H]2C[C@H](O)[C@@H](CO)O2)cc1I [IdUrd, Iododeoxyuridine] |  |  |  |  |  |  |  |  |
|  |  |  |  |  | Cc1cn([C@H]2O[C@H](CO)[C@@H](O)[C@@H]2F)c(=O)[nH]c1=O [FMAU, 1-(2-deoxy-2-fluoro-alpha-D-arabinofuranosyl)thymine, reference compound] | > 80 | > 80 | substantial effect | > 80 | > 80 | > 80 | > 80 | substantial effect |
